The source of these data is patent CN110179802A (priority 2019, dated 2019).

For one series, the system named is Pyogeniccoccus (化脓链球菌). To be noted: cited from earlier work.
In another series the test system is HIa gene (HIa基因). The series is described as follows: Real-time PCR of HIa gene transcription in MRSA43300. Background: Real-time PCR tracks product formation cycle by cycle.
For another series, the system named is α-hemolysin (α-溶血素). Format: cell-based, Staphylococcus aureus (MRSA43300).
Series [1] concerns Staphylococcus aureus (金黄色葡萄球菌). As to conditions: cited from earlier work.
In another series the test system is agrA gene (agrA基因). The series is described as follows: Real-time PCR of agrA gene transcription in MRSA43300.
For another series, the system named is MRSA. To be noted: cited from earlier work.
The test system of series [2] is haemolytic activity of MRSA43300 culture supernatant on rabbit erythrocytes (MRSA43300培养物上清对兔红细胞的溶血活性). The series is described as follows: Haemolytic activity of MRSA43300 culture supernatant on rabbit erythrocytes after co-culture at sub-inhibitory concentrations. As to conditions: for inhibition rate of haemolysis: 16 h at 37℃ with MRSA43300, 543 nm. Format: cell-based, MRSA 43300 (Staphylococcus aureus); rabbit erythrocytes.

The test system of a further series is MRSA43300. The series is described as follows: Antibacterial activity against MRSA43300. Format: cell-based, Staphylococcus aureus (MRSA43300).
For series [3], the system named is Streptococcus pyogenes (酿脓链球菌). To be noted: cited from earlier work.
The conditions of series [4]: in vivo; cited from earlier work.
Series [5] deals with Mycoplasma pneumonia (肺炎支原体). As to conditions: cited from earlier work.
Where [6] appears, read: 1/2MIC, 1/4MIC, 1/8MIC, compared with control group.

As to `C=C[C@]1(C)C[C@@H](OC(=O)CSc2nc(N)cc(N)n2)[C@]2(C)[C@H](C)CC[C@]3(CCC(=O)[C@H]32)[C@@H](C)[C@@H]1O` [14-O-[(4,6-二氨基嘧啶-2-基)巯乙酰基]姆体林], the antibacterial activity entry is on record as “良好的抑菌活性” with Pyogeniccoccus (化脓链球菌); “良好的抑菌活性” in [1]; “良好的抑菌活性” in the series with MRSA; “较好抑菌活性” in the series on MRSA43300; “良好的抑菌活性” in [3]; “良好的抑菌活性” in series [5]. Also, the “HIa gene transcription level” value was “与对照组相比差异极显著” with HIa gene (HIa基因) (setting [6]); “与对照组相比差异显著” in the series with HIa gene (HIa基因) (1/16MIC, compared with control group); “不影响HIa基因转录水平” in the series on HIa gene (HIa基因) (1/32MIC). The “content of α-hemolysin in culture supernatant” value in the series on α-hemolysin (α-溶血素) is “能减少培养物上清中的α-溶血素的含量,且呈明显的浓度依赖性”. The “agrA gene transcription level” value in the series on agrA gene (agrA基因) (setting [6]) is on record as “与对照组相比差异显著”; in the series with agrA gene (agrA基因) (1/16MIC), “没有明显的影响”; in the series on agrA gene (agrA基因) (1/32MIC) it was “不影响agrA的基因转录水平”. Further, the “inhibition rate of haemolysis” value was determined as 97.24±1.15% in series [2] (1/2MIC), 96.4±2.1% in series [2] (1/4MIC) and 31.5±7.86% in series [2] (1/16MIC). Moreover, the “inhibition of haemolytic activity, concentration dependence” value in series [2] (sub-inhibitory concentrations, 1/2MIC to 1/32MIC) is “抑制能力随药物浓度的升高而增强”. Further, the toxicity result in series [4] is reported as “毒性低”.
